Measured values published in US10344026B2, “Compositions and methods of targeting mutant K-ras” (NANTBIO, INC., priority 2017, dated 2019).

Experiments:
Assay type in all cases: cell-based
wild type K-Ras = target: T1, wild type K-Ras (Homo sapiens, UniProt P01116); assay: G-LISA Ras activation, 293H cells transfected with Ras wild-type, EGF stimulated; conditions: compound 1 hour, then 100 ng/ml EGF 2 minutes
T1 construct: expressed in transfected cells; host or cells: 293H cells
In short: (§1)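 Active Ras was quantified by G-LISA in lysates of 293H cells transiently expressing wild-type or mutant Ras. Compounds (3.125-25 μM) were applied for 1 hour; only wild-type transfected cells were stimulated with 100 ng/ml EGF for 2 minutes.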

K-Ras G12D = target: T2, K-Ras G12D (Homo sapiens, UniProt P01116, G12D); assay: G-LISA Ras activation, 293H cells transfected with G12D mutant; conditions: compound 1 hour
T2 construct: expressed in transfected cells; host or cells: 293H cells
T2 sequence (P01116 whole entry G12D): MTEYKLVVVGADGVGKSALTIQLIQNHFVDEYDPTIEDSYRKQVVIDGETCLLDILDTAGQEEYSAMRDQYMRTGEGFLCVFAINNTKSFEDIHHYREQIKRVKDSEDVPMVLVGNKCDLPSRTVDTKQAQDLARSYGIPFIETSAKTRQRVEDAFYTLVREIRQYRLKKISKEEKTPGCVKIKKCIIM
In short: as §1

[1] = test system: Ishikawa (K-Ras wild type cell line); assay: Viability assay (CellTiterBlue, 72 hr) Ishikawa; conditions: Homo sapiens, GI50, CellTiterBlue, Ishikawa K-Ras wild-type
In short: (§2)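 GI50 calculation uses a window set by DMSO-treated wells (100% viability) and 100 uM tamoxifen (0%). Cells (1000/well) sit 18 hr at 37 °C, receive compound for 72 hr in 0.5% DMSO, then get CellTiterBlue for 3 hr before reading at Ex550/Em590.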

[2] = test system: U87-MG (K-Ras wild type cell line); assay: Viability assay (CellTiterBlue, 72 hr) U87-MG; conditions: Homo sapiens, U-87 MG, GI50, CellTiterBlue, U87-MG K-Ras wild-type
In short: as §2

[3] = test system: HCC827 (K-Ras wild type cell line); assay: Viability assay (CellTiterBlue, 72 hr) HCC827; conditions: Homo sapiens, GI50, CellTiterBlue, HCC827 K-Ras wild-type
In short: as §2

[4] = test system: A375 (K-Ras wild type cell line); assay: Viability assay (CellTiterBlue, 72 hr) A375; conditions: Homo sapiens, A-375, GI50, CellTiterBlue
Method: Viability assays were performed on exemplary compounds and Table 2 below lists exemplary results for selected compounds tested on K-Ras wild type cell lines (Ishikawa, U87-MG, HCC827, and A375) and various K-Ras mutant cell lines (Panc1-G12D; Panc10.05-G12D; HCT116-G31D). Results are expressed in μM and corresponding structures are shown in FIGS. 2A-2G and Examples 1-152, above.
Cells are counted and seeded at 1000 cells/36 ul medium/well into 384-well microplates. Cells are returned to 37° C. CO2 incubator for 18 hr. Drug is made as 200× in DMSO and diluted into medium to 10×. To each well is added 4 ul 10× drug, and plates are returned to the incubator. Final assay DMSO concentration is 0.5%. After 72 hr, 8 ul CellTiterBlue (Promega) is added to each well. After 3 hr, fluorescence (Ex550/Em590) is determined on the Victor Plate Reader (Perkin Elmer). Assay range is determined by DMSO control (100% viability) and 100 uM tamoxifen (0% viability). GI50 values are calculated using Graphpad Prism.

Panc1-G12D = assay: Viability assay (CellTiterBlue, 72 hr) Panc1; conditions: Homo sapiens, PANC-1, GI50, CellTiterBlue, Panc1 K-Ras G12D, read-out: 72 hr Cell Viability Panc1 (G12D)
In short: as §2

Panc10.05-G12D = assay: Viability assay (CellTiterBlue, 72 hr) Panc10.05; conditions: Homo sapiens, Panc1005, GI50, CellTiterBlue, Panc10.05 K-Ras G12D, read-out: 72 hr Cell Viability Panc10.05 (G12D)
In short: as §2

HCT116-G31D = assay: Viability assay (CellTiterBlue, 72 hr) HCT116; conditions: Homo sapiens, HCT-116, GI50, CellTiterBlue, HCT116 K-Ras G13D, read-out: 72 hr Cell Viability HCT116 (G13D)
In short: as §2

[5] = test system: phospho-ERK in HCC827 (Wild-type); assay: In-Cell Western phospho-ERK, HCC827; conditions: Homo sapiens, 1 h; HCC827, one hour treatment; read-out: In-Cell Western HCC827 (Wild-type) Erk (P)
Method: (§3) In-cell phosphorylation assays for Erk and Akt were performed on several of the compounds and exemplary results are shown in Table 3 below using HCC827 and A375 cell lines for wild type K-Ras and Panc1 and Panc10.05 cell lines for G12D K-Ras mutants. Results are expressed in μM and corresponding structures are shown in FIGS. 2A-2G and Examples 1-152, above.
(§4) Cells are seeded in complete medium into black sided, clear-bottom 384-well microplates at 3000 cells/[…]/well. Plates are returned to 37° C. CO2 incubator for 18 hr. Drug is made as 200× in DMSO and diluted into medium to 10×. To each well is added 4 ul 10× test article or controls, and plates are returned to the incubator. Final assay DMSO concentration is 0.5%. After one hour, cells are fixed in formaldehyde, rinsed & permeabilized with triton X-100, and blocked with BSA/Goat serum blocking solution. Primary phospho-Akt and phospho-ERK antibodies are added and plates are incubated overnight at 4° C. Plates are rinsed with Tween-20 wash buffer and secondary antibody (Goat anti-rabbit, Thermofisher) is added. After 2 hours, plates are rinsed in Tween-20 wash buffer, and then PBS. Plates are imaged on the Celigo (Nexcelom) and cellular fluorescence is quantitated. Full inhibition of phospho-Akt is achieved with 1 uM BEZ235 (Sellekchem), while full inhibition of phospho-ERK is achieved with 1 uM MEK Inhibitor II Calbiochem). EC50 values are calculated using Graphpad Prism.

[6] = test system: phospho-ERK in A375 (Wild-type); assay: In-Cell Western phospho-ERK, A375; conditions: Homo sapiens, A-375, 1 h; A375, one hour treatment; read-out: In-Cell Western A375 (Wild-type) Erk (P)
Method: as §3, §4

[7] = test system: phospho-Akt in A375 (Wild-type); assay: In-Cell Western phospho-Akt, A375; conditions: Homo sapiens, A-375, 1 h; A375, one hour treatment; read-out: In-Cell Western A375 (Wild-type) Akt (P)
Method: as §3, §4

[8] = test system: phospho-ERK in Panc1 (G12D); assay: In-Cell Western phospho-ERK, Panc1; conditions: Homo sapiens, PANC-1, 1 h; Panc1, one hour treatment; read-out: In-Cell Western Panc1 (G12D) Erk (P)
In short: (§5)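 Cells were seeded at 3000 cells/well, incubated 18 hr at 37° C, then treated with compound for 1 hr (0.5% DMSO final). After fixation, permeabilization and blocking, phospho-Akt or phospho-ERK antibodies were applied overnight at 4° C, followed by secondary antibody; cellular fluorescence was imaged and EC50 calculated.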

[9] = test system: phospho-Akt in Panc1 (G12D); assay: In-Cell Western phospho-Akt, Panc1; conditions: Homo sapiens, PANC-1, 1 h; Panc1, one hour treatment; read-out: In-Cell Western Panc1 (G12D) Akt (P)
In short: as §5

[10] = test system: phospho-ERK in Panc10.05 (G12D); assay: In-Cell Western phospho-ERK, Panc10.05; conditions: Homo sapiens, Panc1005, 1 h; Panc10.05, one hour treatment; read-out: In-Cell Western Panc10.05 (G12D) Erk (P)
In short: as §5

[11] = test system: phospho-Akt in Panc10.05 (G12D); assay: In-Cell Western phospho-Akt, Panc10.05; conditions: Homo sapiens, Panc1005, 1 h; Panc10.05, one hour treatment; read-out: In-Cell Western Panc10.05 (G12D) Akt (P)
In short: as §5

T1 sequence (P01116 whole entry): as the sequence (P01116 whole entry G12D) above, with D12G counted along it

Compound | IC50 (wild type K-Ras) [µM] | IC50 (K-Ras G12D) [µM] | IC50 [1] [µM] | IC50 [2] [µM] | IC50 [3] [µM] | IC50 [4] [µM] | IC50 (Panc1-G12D) [µM] | IC50 (Panc10.05-G12D) [µM] | IC50 (HCT116-G31D) [µM] | EC50 [5] [µM] | EC50 [6] [µM] | EC50 [7] [µM] | EC50 [8] [µM] | EC50 [9] [µM] | EC50 [10] [µM] | EC50 [11] [µM]
COc1cccc(CN2C(=O)CCc3cc(-c4csc(NC(=O)c5oc(C)nc5C)n4)ccc32)c1OC [Compound 93, N-(4-(1-(2,3-dimethoxybenzyl)-2-oxo-1,2,3,4-tetrahydroquinolin-6-yl)thiazol-2-yl)-2,4-dimethyloxazole-5-carboxamide] | 10 | 8.6 | > 25 | > 25 | > 25 | > 25 | 9 | 5 | 4 | > 25 | > 25 | > 25 | 8 | 6 | 1.2 | 15
Cc1nc(C2CCC2)oc1C(=O)Nc1nc(-c2ccc3c(c2)CCC(=O)N3Cc2cccnc2)cs1 [Compound 92, 2-cyclobutyl-4-methyl-N-(4-(2-oxo-1-(pyridin-3-ylmethyl)-1,2,3,4-tetrahydroquinolin-6-yl)thiazol-2-yl)oxazole-5-carboxamide] | 15.2 | 8.5 | > 25 | > 25 | 4 | > 25 | 6 | 3 | 1.5 | 15 | > 25 | > 25 | 6 | – | 2 | 17
CCn1nc(C2CC2)cc1C(=O)Nc1nc(-c2ccc3c(c2)CCC(=O)N3)cs1 [Compound 45, 3-cyclopropyl-1-ethyl-N-(4-(2-oxo-1,2,3,4-tetrahydroquinolin-6-yl)thiazol-2-yl)-1H-pyrazole-5-carboxamide] | – | 8.8 | > 25 | > 25 | > 25 | > 25 | > 25 | 3 | > 25 | > 25 | > 25 | > 25 | > 25 | > 25 | 6 | 11
Cn1nc(C(F)F)cc1C(=O)Nc1nc(-c2ccc3c(c2)CCC(=O)N3)cs1 [Compound 49, 3-(difluoromethyl)-1-methyl-N-(4-(2-oxo-1,2,3,4-tetrahydroquinolin-6-yl)thiazol-2-yl)-1H-pyrazole-5-carboxamide] | – | 12.3 | > 25 | > 25 | > 25 | > 25 | > 25 | > 25 | > 25 | > 25 | > 25 | > 25 | > 25 | > 25 | 19 | 20
CCc1nc(C)c(C(=O)Nc2nc(-c3ccc4c(c3)CCC(=O)N4C(C)c3cccnc3)cs2)o1 (stereo not shown) [Compound 102, 2-ethyl-4-methyl-N-(4-(2-oxo-1-(1-(pyridin-3-yl)ethyl)-1,2,3,4-tetrahydroquinolin-6-yl)thiazol-2-yl)oxazole-5-carboxamide] | – | 8.2 | > 25 | > 25 | > 25 | > 25 | > 25 | 5 | 13 | 11 | 26 | > 25 | 8 | > 25 | 19 | > 25
CCn1nccc1C(=O)Nc1nc(-c2ccc3c(c2)CCC(=O)N3)cs1 [Compound 46, 1-ethyl-N-(4-(2-oxo-1,2,3,4-tetrahydroquinolin-6-yl)thiazol-2-yl)-1H-pyrazole-5-carboxamide] | – | 22.5 | > 25 | > 25 | > 25 | > 25 | > 25 | 11 | > 25 | > 25 | > 25 | > 25 | > 25 | > 25 | 11 | 13
Cc1nc(C)c(C(=O)Nc2nc(-c3ccc4c(c3)CCC(=O)N4Cc3cccnc3)cs2)s1 [Compound 105, 2,4-dimethyl-N-(4-(2-oxo-1-(pyridin-3-ylmethyl)-1,2,3,4-tetrahydroquinolin-6-yl)thiazol-2-yl)thiazole-5-carboxamide] | – | 10.4 | > 25 | > 25 | > 25 | 25 | 12 | 2 | 13 | 19 | > 25 | > 25 | 5 | > 25 | 11 | > 25
CC(C)c1cc(C(=O)Nc2nc(-c3ccc4c(c3)CCC(=O)N4)cs2)n(C)n1 [Compound 44, 3-isopropyl-1-methyl-N-(4-(2-oxo-1,2,3,4-tetrahydroquinolin-6-yl)thiazol-2-yl)-1H-pyrazole-5-carboxamide] | – | 4 | > 25 | > 25 | > 25 | > 25 | > 25 | 2 | > 25 | > 25 | > 25 | > 25 | > 25 | > 25 | > 25 | > 25
